According to ChEMBL document CHEMBL5291721, “A preclinical secondary pharmacology resource illuminates target-adverse drug reaction associations of marketed drugs” (Nat Commun, 2023):

Tests used:
Cannabinoid receptor 1 [1] = biological target: T1, Cannabinoid receptor 1 (Homo sapiens, UniProt P21554); type: functional, cell-based
[2] = biological target: T2, 5-hydroxytryptamine receptor 1A (Homo sapiens, UniProt P08908); type: functional, cell-based
T2 sequence (P08908 whole entry): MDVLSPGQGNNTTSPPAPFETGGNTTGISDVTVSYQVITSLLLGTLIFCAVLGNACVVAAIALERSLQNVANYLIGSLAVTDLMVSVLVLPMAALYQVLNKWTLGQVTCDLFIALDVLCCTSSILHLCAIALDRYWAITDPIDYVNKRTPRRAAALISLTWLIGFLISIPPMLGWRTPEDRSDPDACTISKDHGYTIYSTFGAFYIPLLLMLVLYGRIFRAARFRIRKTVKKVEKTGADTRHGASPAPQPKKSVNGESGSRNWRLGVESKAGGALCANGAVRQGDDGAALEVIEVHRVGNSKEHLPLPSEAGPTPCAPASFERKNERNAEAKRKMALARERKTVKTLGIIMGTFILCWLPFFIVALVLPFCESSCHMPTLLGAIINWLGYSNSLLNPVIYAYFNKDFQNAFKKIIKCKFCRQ

[3] = biological target: Gamma-aminobutyric acid receptor subunit alpha-1 (Rattus norvegicus, UniProt P62813); type: functional
Chain of Gamma-aminobutyric acid receptor subunit alpha-1 (P62813 whole entry): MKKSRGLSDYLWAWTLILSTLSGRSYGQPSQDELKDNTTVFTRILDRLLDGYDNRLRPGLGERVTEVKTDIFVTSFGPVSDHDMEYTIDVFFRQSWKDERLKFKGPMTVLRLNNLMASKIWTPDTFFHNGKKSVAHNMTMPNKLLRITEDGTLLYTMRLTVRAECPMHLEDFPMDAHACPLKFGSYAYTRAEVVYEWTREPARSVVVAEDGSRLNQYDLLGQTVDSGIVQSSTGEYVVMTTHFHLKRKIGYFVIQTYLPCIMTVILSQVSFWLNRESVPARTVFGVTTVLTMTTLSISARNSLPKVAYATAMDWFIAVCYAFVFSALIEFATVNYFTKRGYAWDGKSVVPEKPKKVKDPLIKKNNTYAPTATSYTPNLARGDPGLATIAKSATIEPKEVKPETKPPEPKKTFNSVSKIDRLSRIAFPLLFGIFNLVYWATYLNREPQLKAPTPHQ

[4] = biological target: T3, 5-hydroxytryptamine receptor 3A (Homo sapiens, UniProt P46098); type: functional
T3 sequence (P46098 whole entry): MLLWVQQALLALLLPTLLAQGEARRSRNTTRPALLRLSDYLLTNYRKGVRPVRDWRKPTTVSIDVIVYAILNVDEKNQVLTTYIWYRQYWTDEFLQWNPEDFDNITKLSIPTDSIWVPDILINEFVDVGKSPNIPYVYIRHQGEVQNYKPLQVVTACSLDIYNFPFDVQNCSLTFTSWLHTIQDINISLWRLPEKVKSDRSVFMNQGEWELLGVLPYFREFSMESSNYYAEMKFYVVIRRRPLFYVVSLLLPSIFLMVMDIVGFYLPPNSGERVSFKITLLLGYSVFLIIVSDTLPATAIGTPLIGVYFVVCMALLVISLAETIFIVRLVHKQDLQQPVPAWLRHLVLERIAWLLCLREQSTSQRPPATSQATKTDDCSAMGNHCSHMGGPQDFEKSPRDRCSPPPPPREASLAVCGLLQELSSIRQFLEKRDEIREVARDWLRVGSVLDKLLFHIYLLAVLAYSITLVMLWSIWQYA

[5] = biological target: Beta-1 adrenergic receptor (Homo sapiens, UniProt P08588); type: functional
Chain of Beta-1 adrenergic receptor (P08588 whole entry): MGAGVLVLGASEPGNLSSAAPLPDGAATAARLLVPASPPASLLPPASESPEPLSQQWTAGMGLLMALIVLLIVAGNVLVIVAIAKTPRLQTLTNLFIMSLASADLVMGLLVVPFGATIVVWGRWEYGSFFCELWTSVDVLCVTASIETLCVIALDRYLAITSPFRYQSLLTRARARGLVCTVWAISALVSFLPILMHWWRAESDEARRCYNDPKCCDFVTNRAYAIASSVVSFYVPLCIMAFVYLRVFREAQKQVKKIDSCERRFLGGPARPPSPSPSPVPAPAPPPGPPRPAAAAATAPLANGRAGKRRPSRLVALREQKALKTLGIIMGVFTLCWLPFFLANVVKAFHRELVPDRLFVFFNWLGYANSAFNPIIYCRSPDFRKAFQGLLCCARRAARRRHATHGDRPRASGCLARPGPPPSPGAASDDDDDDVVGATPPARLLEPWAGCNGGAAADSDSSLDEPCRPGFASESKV

[6] = biological target: Neuronal acetylcholine receptor subunit alpha-4 (Homo sapiens, UniProt P43681)
Chain of Neuronal acetylcholine receptor subunit alpha-4 (P43681 whole entry): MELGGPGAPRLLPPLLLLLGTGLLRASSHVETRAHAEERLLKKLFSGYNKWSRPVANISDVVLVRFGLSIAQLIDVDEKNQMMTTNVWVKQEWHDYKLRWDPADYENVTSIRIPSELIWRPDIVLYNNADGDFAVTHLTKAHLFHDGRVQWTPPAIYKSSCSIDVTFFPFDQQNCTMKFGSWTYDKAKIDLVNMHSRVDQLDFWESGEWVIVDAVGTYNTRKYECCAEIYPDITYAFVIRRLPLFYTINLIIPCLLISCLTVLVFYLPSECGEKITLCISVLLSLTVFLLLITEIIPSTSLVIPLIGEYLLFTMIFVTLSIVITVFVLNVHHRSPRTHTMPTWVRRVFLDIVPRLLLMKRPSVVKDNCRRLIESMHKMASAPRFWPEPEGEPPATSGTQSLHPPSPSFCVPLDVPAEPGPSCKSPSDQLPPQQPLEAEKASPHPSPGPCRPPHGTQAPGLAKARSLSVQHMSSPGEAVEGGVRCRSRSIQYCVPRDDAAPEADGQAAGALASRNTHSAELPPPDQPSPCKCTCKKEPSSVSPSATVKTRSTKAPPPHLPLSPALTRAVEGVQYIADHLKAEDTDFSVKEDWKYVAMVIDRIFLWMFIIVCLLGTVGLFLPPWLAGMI

[7] = biological target: T4, Alpha-2A adrenergic receptor (Homo sapiens, UniProt P08913); type: functional, cell-based
T4 sequence (P08913 whole entry): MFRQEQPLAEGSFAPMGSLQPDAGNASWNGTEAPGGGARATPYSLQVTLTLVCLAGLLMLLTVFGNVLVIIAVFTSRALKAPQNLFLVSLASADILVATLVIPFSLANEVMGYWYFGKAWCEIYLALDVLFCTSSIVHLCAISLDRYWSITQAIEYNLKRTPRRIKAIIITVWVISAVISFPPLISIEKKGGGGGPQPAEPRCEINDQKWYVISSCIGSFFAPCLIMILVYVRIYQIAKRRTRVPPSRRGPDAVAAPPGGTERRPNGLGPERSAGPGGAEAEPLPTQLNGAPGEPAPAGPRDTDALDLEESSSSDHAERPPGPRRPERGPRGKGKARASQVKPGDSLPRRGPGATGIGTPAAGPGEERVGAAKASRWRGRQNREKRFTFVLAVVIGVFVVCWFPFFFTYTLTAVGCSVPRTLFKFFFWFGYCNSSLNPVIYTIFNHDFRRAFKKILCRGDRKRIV

Cannabinoid receptor 1 [8] = biological target: T1, Cannabinoid receptor 1; type: functional, cell-based; remark: listed apart in the source
Also: assay procedure not described here.

T1 sequence (P21554 whole entry): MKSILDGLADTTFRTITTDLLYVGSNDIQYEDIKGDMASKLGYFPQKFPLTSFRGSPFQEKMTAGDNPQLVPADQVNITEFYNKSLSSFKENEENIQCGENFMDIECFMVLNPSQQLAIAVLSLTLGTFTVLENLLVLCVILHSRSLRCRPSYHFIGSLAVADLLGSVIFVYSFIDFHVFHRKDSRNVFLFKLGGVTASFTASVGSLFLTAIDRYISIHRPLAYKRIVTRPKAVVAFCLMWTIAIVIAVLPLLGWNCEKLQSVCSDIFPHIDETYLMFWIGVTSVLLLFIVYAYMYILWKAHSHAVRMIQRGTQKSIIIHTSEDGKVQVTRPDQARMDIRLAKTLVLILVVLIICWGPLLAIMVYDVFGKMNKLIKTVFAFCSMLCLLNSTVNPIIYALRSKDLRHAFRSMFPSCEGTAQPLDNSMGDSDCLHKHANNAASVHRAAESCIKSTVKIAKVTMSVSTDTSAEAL

Structure (SMILES) | AC50 (Cannabinoid receptor 1 [1]) [µM] | AC50 [2] [µM] | AC50 [3] [µM] | AC50 [4] [µM] | AC50 [5] [µM] | AC50 [6] [µM] | AC50 [7] [µM] | AC50 (Cannabinoid receptor 1 [8]) [µM]
CCN1CCN(Cc2ccc(Nc3ncc(F)c(-c4cc(F)c5nc(C)n(C(C)C)c5c4)n3)nc2)CC1 [ABEMACICLIB] | > 30 | > 30 | > 30 | > 30 | > 30 | > 30 | > 30 | > 30
COc1ccccc1Oc1c(NS(=O)(=O)c2ccc(C(C)(C)C)cc2)nc(-c2ncccn2)nc1OCCO [BOSENTAN] | > 30 | > 10 | > 10 | > 30 | > 30 | > 30 | > 10 | > 30
C[C@@H](Oc1cc(-c2cnn(C3CCNCC3)c2)cnc1N)c1c(Cl)ccc(F)c1Cl [CRIZOTINIB] | > 30 | > 10 | > 30 | > 30 | > 30 |  | 15 | > 10
CN(C)CC[C@@H](c1ccc(Cl)cc1)c1ccccn1 [DEXCHLORPHENIRAMINE] | > 30 | 22 | > 30 | > 30 | > 30 | > 30 | > 30 | > 30
CC(C)N(CCC(C(N)=O)(c1ccccc1)c1ccccn1)C(C)C (stereo not drawn) [DISOPYRAMIDE] | > 30 | > 10 | > 10 | > 30 | > 30 | > 30 | > 10 | > 30
C[C@H]1c2cccc(O)c2C(=O)C2=C(O)[C@]3(O)C(=O)C(C(N)=O)=C(O)[C@@H](N(C)C)[C@@H]3[C@@H](O)[C@@H]21 [DOXYCYCLINE] | > 30 | > 10 | > 10 | > 30 | > 10 | > 10 | > 10 | > 30
C[C@]12C=CC(=O)N[C@@H]1CC[C@@H]1[C@@H]2CC[C@]2(C)[C@@H](C(=O)Nc3cc(C(F)(F)F)ccc3C(F)(F)F)CC[C@@H]12 [DUTASTERIDE] | > 30 | > 10 | > 30 | > 30 | > 10 | > 10 | > 10 | > 30
CN(C)CCC[C@@]1(c2ccc(F)cc2)OCc2cc(C#N)ccc21 [ESCITALOPRAM] | > 30 | > 30 | > 30 | > 30 | > 30 | > 30 | > 30 | > 30
CO[C@H]1/C=C/O[C@@]2(C)Oc3c(C)c(O)c4c(O)c(c(/C=N/N5CCN(C)CC5)c(O)c4c3C2=O)NC(=O)/C(C)=C\C=C\[C@H](C)[C@H](O)[C@@H](C)[C@@H](O)[C@@H](C)[C@H](OC(C)=O)[C@@H]1C [RIFAMPIN] | > 30 | > 10 | > 30 | 5.2 | 28 | 22 | > 30 | > 30
CC(N)C12CC3CC(CC(C3)C1)C2 (stereo not drawn) [RIMANTADINE] |  | > 10 | > 10 | > 30 | > 10 | > 10 | > 10 | 
CC(C)c1nc(N(C)S(C)(=O)=O)nc(-c2ccc(F)cc2)c1/C=C/[C@@H](O)C[C@@H](O)CC(=O)O [ROSUVASTATIN] | > 30 | > 30 | > 30 | > 30 | > 30 | > 30 | > 30 | > 30
N[C@@H](CC(=O)N1CCn2c(nnc2C(F)(F)F)C1)Cc1cc(F)c(F)cc1F [SITAGLIPTIN] | > 30 | > 30 | > 30 | > 30 | > 30 | > 30 | > 30 | > 30
Nc1ccc(S(=O)(=O)Nc2nccs2)cc1 [SULFATHIAZOLE] | > 30 | > 10 | > 10 | > 30 | > 10 | > 10 | > 10 | > 30
O=C1C(CC[S+]([O-])c2ccccc2)C(=O)N(c2ccccc2)N1c1ccccc1 (stereo not drawn) [SULFINPYRAZONE] | > 30 | > 10 | > 10 | > 30 | > 10 | > 10 | > 30 | > 30
C=CC[C@@H]1/C=C(\C)C[C@H](C)C[C@H](OC)[C@H]2O[C@@](O)(C(=O)C(=O)N3CCCC[C@H]3C(=O)O[C@H](/C(C)=C/[C@@H]3CC[C@@H](O)[C@H](OC)C3)[C@H](C)[C@@H](O)CC1=O)[C@H](C)C[C@@H]2OC [TACROLIMUS ANHYDROUS] | > 30 | > 30 | > 30 | > 30 | > 30 | > 30 | > 10 | > 30
CC(S)C(=O)NCC(=O)O (stereo not drawn) [TIOPRONIN] | > 30 | > 30 | > 30 | > 30 | > 30 | > 30 | > 30 | > 30
C[C@H](CCC(=O)O)[C@H]1CC[C@H]2[C@@H]3[C@@H](O)C[C@@H]4C[C@H](O)CC[C@]4(C)[C@H]3CC[C@]12C [URSODIOL] | > 30 | > 30 | > 30 | > 30 | > 30 | > 30 | > 30 | > 30
